In patent US10166216B2 (Rigel Pharmaceuticals, Inc., priority 2006, dated 2019):

Target: Axl (Homo sapiens (Human), UniProt P30530)
Assay: Phospho-Akt in-cell Western assay (Axl-antibody cross-linking stimulation)
Format: cell-based
Conditions: inhibition of Axl activity
Outline: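 HeLa cells on poly-L-lysine, starved 24 hrs with Axl/Fc, pre-treated with compound 1 hr at 37° C., then stimulated 5 min with Axl primary/secondary antibody cluster. Fixed cells probed for phospho-Akt by chemiluminescent in-cell Western; signal normalized to crystal violet cell number.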

[1] = phospho-Akt in-cell Western assay
[2] = Hela cells, phospho-Akt readout, Table 5, formula (Ia3)

Sequence of Axl (P30530 26-894): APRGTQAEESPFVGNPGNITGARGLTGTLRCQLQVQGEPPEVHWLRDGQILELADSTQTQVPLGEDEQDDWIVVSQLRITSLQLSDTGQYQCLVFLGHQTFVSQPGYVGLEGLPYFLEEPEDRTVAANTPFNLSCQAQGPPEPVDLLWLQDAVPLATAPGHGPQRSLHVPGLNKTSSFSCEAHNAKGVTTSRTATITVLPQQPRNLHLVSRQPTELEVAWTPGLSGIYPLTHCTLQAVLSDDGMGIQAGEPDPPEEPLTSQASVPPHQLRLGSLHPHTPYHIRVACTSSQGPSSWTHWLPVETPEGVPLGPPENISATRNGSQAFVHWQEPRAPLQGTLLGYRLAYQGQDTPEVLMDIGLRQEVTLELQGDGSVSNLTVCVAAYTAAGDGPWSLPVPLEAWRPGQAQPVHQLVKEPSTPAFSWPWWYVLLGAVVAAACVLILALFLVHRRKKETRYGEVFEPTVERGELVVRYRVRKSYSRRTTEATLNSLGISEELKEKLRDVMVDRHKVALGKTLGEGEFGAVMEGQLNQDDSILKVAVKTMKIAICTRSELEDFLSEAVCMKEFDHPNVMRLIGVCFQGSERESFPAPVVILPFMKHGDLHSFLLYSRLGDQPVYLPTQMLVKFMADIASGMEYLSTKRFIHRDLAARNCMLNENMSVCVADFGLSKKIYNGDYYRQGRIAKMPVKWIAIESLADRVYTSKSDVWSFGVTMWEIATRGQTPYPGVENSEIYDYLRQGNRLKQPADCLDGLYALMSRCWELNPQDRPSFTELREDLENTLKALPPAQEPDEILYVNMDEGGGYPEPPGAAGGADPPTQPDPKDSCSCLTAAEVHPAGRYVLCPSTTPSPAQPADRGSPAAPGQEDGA

IC50 [1] [nM]	IC50 [2] [nM]	Structure (SMILES)	also measured
–	< 1000	COc1cc2ncnc(-n3nc(Nc4ccc(C(=O)N5CCN(C6CCCC6)CC5)cc4)nc3N)c2cc1OC [Compound 206, 1-(6,7-dimethoxyquinazolin-4-yl)-N^3-(4-(4-(cyclopentyl)piperazin-1-ylcarbonyl)phenyl)-1H-1,2,4-triazole-3,5-diamine]	–
–	< 1000	Cc1csc2c(-n3nc(Nc4ccc(C(=O)N5CCN(C6CCCC6)CC5)cc4)nc3N)ncnc12 [Compound 207, 1-(7-methylthieno[3,2-d]pyrimidin-4-yl)-N^3-(4-(4-(cyclopentyl)piperazin-1-ylcarbonyl)phenyl)-1H-1,2,4-triazole-3,5-diamine]	–
–	< 1000	Cc1csc2c(-n3nc(Nc4ccc(C(=O)NCCN5CCCC5)cc4)nc3N)nc(Cl)nc12 [Compound 208, 1-(7-methyl-2-chlorothieno[3,2-d]pyrimidin-4-yl)-N^3-(4-((2-(pyrrolidin-1-yl)ethyl)aminocarbonyl)phenyl)-1H-1,2,4-triazole-3,5-diamine]	–
–	< 1000	COc1cc2ncnc(-n3nc(Nc4ccc(N5CCC(N6CCCCC6)CC5)c(F)c4)nc3N)c2cc1OC [Compound 209, 1-(6,7-dimethoxyquinazolin-4-yl)-N^3-(3-fluoro-4-(4-piperidin-1-ylpiperidin-1-yl)phenyl)-1H-1,2,4-triazole-3,5-diamine]	–
–	< 1000	Cc1csc2c(-n3nc(Nc4ccc(N5CCC(N6CCCCC6)CC5)c(F)c4)nc3N)nc(Cl)nc12 [Compound 210, 1-(7-methyl-2-chlorothieno[3,2-d]pyrimidin-4-yl)-N^3-(3-fluoro-4-(4-piperidin-1-ylpiperidin-1-yl)phenyl)-1H-1,2,4-triazole-3,5-diamine]	–
–	< 1000	CCN(CC)C1CCN(c2ccc(Nc3nc(N)n(-c4nc(Cl)nc5c(C)csc45)n3)cc2F)C1 (centres unmarked) [Compound 211, 1-(7-methyl-2-chlorothieno[3,2-d]pyrimidin-4-yl)-N^3-(3-fluoro-4-(3-diethylaminopyrrolidin-1-yl)phenyl)-1H-1,2,4-triazole-3,5-diamine]	–
–	< 1000	CN1CCC(c2ccc(Nc3nc(N)n(-c4nc5ccccc5c5ccccc45)n3)cc2)CC1 [Compound 213, 1-(phenanthridin-6-yl)-N^3-(4-(1-methylpiperidin-4-yl)phenyl)-1H-1,2,4-triazole-3,5-diamine]	–
–	< 1000	Cc1cc(Nc2nc(N)n(-c3nc4ccccc4c4ccccc34)n2)ccc1N1CCC(N2CCCC2)CC1 [Compound 214, 1-(phenanthridin-6-yl)-N^3-(3-methyl-4-(4-pyrrolidin-1-ylpiperidin-1-yl)phenyl)-1H-1,2,4-triazole-3,5-diamine]	–
–	> 20000	COc1cc2ncnc(-n3nc(Nc4ccc(N5Cc6ccccc6C5)c(F)c4)nc3N)c2cc1OC [Compound 216, 1-(6,7-dimethoxyquinazolin-4-yl)-N^3-(3-fluoro-4-(isoindolin-2-yl)phenyl)-1H-1,2,4-triazole-3,5-diamine]	–
< 1000	–	Cc1cc(Nc2nc(N)n(-c3nnc(C)c4ccsc34)n2)ccc1N1CCN(C2CC3CCC2C3)CC1 (centres unmarked) [Compound 217, 1-(4-methylthieno[3,2-d]pyridazin-7-yl)-N^3-(3-methyl-4-(4-(bicyclo[2.2.1]heptan-2-yl)-piperazin-1-yl)phenyl)-1H-1,2,4-triazole-3,5-diamine]	–
–	> 20000	CC(C)c1ccc(-n2nc(Nc3ccc(N4CCOCC4)cc3)nc2N)cc1 [Compound 218, 1-(4-isopropylphenyl)-N^3-(4-morpholinophenyl)-1H-1,2,4-triazole-3,5-diamine]	–

More lines, now with the values behind:

Structure (SMILES)	IC50 [1] [nM]	IC50 [2] [nM]	also measured
Nc1nc(Nc2ccc(N3CCN(C4CCCC4)CC3)c(F)c2)nn1-c1nc2ccccc2c2ccccc12 [Compound 192, 1-(phenanthridin-6-yl)-N^3-(3-fluoro-4-(4-cyclopentylpiperazin-1-yl)phenyl)-1H-1,2,4-triazole-3,5-diamine]	< 1000	–	–
Cc1csc2c(-n3nc(Nc4ccc(N5CCN(C6CC7CCC6C7)CC5)c(F)c4)nc3N)ncnc12 (centres unmarked) [Compound 194]	< 1000	–	–
Nc1nc(Nc2ccc(N3CCN(C4CC5CCC4C5)CC3)c(F)c2)nn1-c1ncnc2ccsc12 (centres unmarked) [Compound 195, 1-(thieno[3,2-d]pyrimdin-4-yl)-N^3-(3-fluoro-4-(4-(bicyclo[2.2.1]heptan-2-yl)-piperazin-1-yl)phenyl)-1H-1,2,4-triazole-3,5-diamine]	< 1000	–	–
Nc1nc(Nc2ccc(N3CCN(C4CC5CCC4C5)CC3)c(F)c2)nn1-c1ncnc2sccc12 (centres unmarked) [Compound 196, 1-(thieno[2,3-d]pyrimidin-4-yl)-N^3-(3-fluoro-4-(4-(bicyclo[2.2.1]heptan-2-yl)-piperazin-1-yl)phenyl)-1H-1,2,4-triazole-3,5-diamine]	< 1000	–	–
Nc1nc(Nc2ccc(N3CCN(C4CC5CCC4C5)CC3)c(F)c2)nn1-c1ncnc2ccc(F)cc12 (centres unmarked) [Compound 197, 1-(6-fluoroquinazolin-4-yl)-N^3-(3-fluoro-4-(4-(bicyclo[2.2.1]heptan-2-yl)-piperazin-1-yl)phenyl)-1H-1,2,4-triazole-3,5-diamine]	< 1000	–	–
Cc1nnc(-n2nc(Nc3ccc(N4CCN(C5CC6CCC5C6)CC4)cc3)nc2N)c2sccc12 (centres unmarked) [Compound 198, 1-(4-methylthieno[3,2-d]pyridazin-7-yl)-N^3-(4-(4-(bicyclo[2.2.1]heptan-2-yl)-piperazin-1-yl)phenyl)-1H-1,2,4-triazole-3,5-diamine]	< 1000	–	–
Cc1cc(Nc2nc(N)n(-c3ncnc4c(C)csc34)n2)ccc1N1CCN(C2CC3CCC2C3)CC1 (centres unmarked) [Compound 199, 1-(7-methylthieno[3,2-d]pyrimidin-4-yl)-N^3-(3-methyl-4-(4-(bicyclo[2.2.1]heptan-2-yl)-piperazin-1-yl)phenyl)-1H-1,2,4-triazole-3,5-diamine]	< 1000	–	–
Cc1cc(N2CCN(C3CC4CCC3C4)CC2)ccc1Nc1nc(N)n(-c2nc(Cl)nc3c(C)csc23)n1 (centres unmarked) [Compound 200, 1-(7-methyl-2-chlorothieno[3,2-d]pyrimidin-4-yl)-N^3-(2-methyl-4-(4-(bicyclo[2.2.1]heptan-2-yl)-piperazin-1-yl)phenyl)-1H-1,2,4-triazole-3,5-diamine]	1000 to 10000	–	–
Cc1csc2c(-n3nc(Nc4ccc(N5CCN([C@H]6C[C@@H]7CC[C@H]6C7)CC5)c(F)c4)nc3N)ncnc12 [Compound 201, 1-(7-methylthieno[3,2-d]pyrimidin-4-yl)-N^3-(3-fluoro-4-(4-((1S,2S,4R)-bicyclo[2.2.1]heptan-2-yl)-piperazin-1-yl)phenyl)-1H-1,2,4-triazole-3,5-diamine]	< 1000	–	–
Cc1cc(N2CCN(C3CC4CCC3C4)CC2)ccc1Nc1nc(N)n(-c2ncnc3c(C)csc23)n1 (centres unmarked) [Compound 202, 1-(7-methylthieno[3,2-d]pyrimidin-4-yl)-N^3-(2-methyl-4-(4-(bicyclo[2.2.1]heptan-2-yl)-piperazin-1-yl)phenyl)-1H-1,2,4-triazole-3,5-diamine]	< 1000	–	–
Cc1nnc(-n2nc(Nc3ccc(N4CCN(C5CC6CCC5C6)CC4)c(F)c3)nc2N)c2sccc12 (centres unmarked) [Compound 203, 1-(4-methylthieno[3,2-d]pyridazin-7-yl)-N^3-(3-fluoro-4-(4-(bicyclo[2.2.1]heptan-2-yl)-piperazin-1-yl)phenyl)-1H-1,2,4-triazole-3,5-diamine]	< 1000	–	–
Nc1nc(Nc2ccc(N3CCN(C4CCCC4)CC3)c(F)c2)n(-c2nc3ccccc3c3ccccc23)n1 [Compound 205, 1-(phenanthridin-6-yl)-N^5-(3-fluoro-4-(4-cyclopentylpiperazin-1-yl)phenyl)-1H-1,2,4-triazole-3,5-diamine]	–	–	IC50 (Hela cells, phospho-Akt readout, Table 4, formula (Ib2)): < 1000 nM
